Common to all, as to type: cell-based
For one test, the system named is BON-1. Kind of test: Cell viability/CTG assay, BON-1. The note with it: BON-1 cell line; CTG assay, 72 hr; values approximate; read-out: IC (μM, CTG assay: 72 hr). The protocol:
(§1) FIGS. 3A and 3B are a set of graphs showing the cell viability/CTG assays for NEN cell lines treated with BCL-2/xL inhibitor Compound No. 2 (an active metabolite of Compound No. 1)(FIG. 3A) or ABT-263 (FIG. 3B).
(§2) The activity of Compound No. 2 (an active metabolite of Compound No. 1) in overcoming apoptotic blockade in neuroendocrine neoplasm was tested, alone or in comparison with ABT-263.

The test system of the next test is QGP-1. Kind of test: Cell viability/CTG assay, QGP-1. The note with it: QGP-1 cell line; CTG assay, 72 hr; values approximate; read-out: IC (μM, CTG assay: 72 hr). The protocol: as §1, §2
A further test relates to NCI-H727. The test is described as follows: Cell viability/CTG assay, NCI-H727. The note with it: Homo sapiens; NCI-H727 cell line; CTG assay, 72 hr; values approximate; read-out: IC (μM, CTG assay: 72 hr). On the procedure:
as §1, §2

Another test relates to NCI-H460. The test is described as follows: Cell viability/CTG assay, NCI-H460. The note with it: Homo sapiens; NCI-H460 cell line; CTG assay, 72 hr; values approximate; read-out: IC (μM, CTG assay: 72 hr). On the procedure:
as §1, §2

The next test deals with β-TC3. Kind of test: Cell viability/CTG assay, β-TC3. Conditions: β-TC3 cell line; CTG assay, 72 hr; values approximate; read-out: IC (μM, CTG assay: 72 hr). On the procedure: as §1, §2
The subject of a further test is MIN-6. Kind of test: Cell viability/CTG assay, MIN-6. The note with it: Mus musculus, MIN6; MIN-6 cell line; CTG assay, 72 hr; values approximate; read-out: IC (μM, CTG assay: 72 hr). The protocol:
as §1, §2

A further test has as its system NEN cell lines. Kind of test: NEN cell viability (general statement). The note with it: FIGS. 3A and 3B. On the procedure: as §1, §2
For the next test, the target named is T1, BCL-xL:BIM complex (Homo sapiens, UniProt Q07817).
T1 construct: High expression of BCL-xL protein was found in NEN cell lines; endogenous in cells; host or cells: BON-1 and QGP-1 (printed QGP-I) NEN cell lines
T1 sequence (Q07817 whole entry, one chain of several): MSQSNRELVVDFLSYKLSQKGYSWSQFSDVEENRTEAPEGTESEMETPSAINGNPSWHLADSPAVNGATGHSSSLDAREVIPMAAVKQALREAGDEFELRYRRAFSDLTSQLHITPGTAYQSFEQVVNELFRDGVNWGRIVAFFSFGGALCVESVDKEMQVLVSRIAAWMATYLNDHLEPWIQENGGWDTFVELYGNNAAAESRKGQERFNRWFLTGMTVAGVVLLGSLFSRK
The test is described as follows: BCL-2 family member complex intensity: BCL-xL:BIM. Conditions: BON-1 and QGP-1 treated with BCL-2/xL inhibitors; FIG. 4A. The text has this:
(§3) FIGS. 4A-4C are a set of graphs showing the BCL-2 family member complex intensity in BON-1 and QGP-I treated with BCL-2/xL inhibitors (FIG. 4A: BCL-xL:BIM complex, FIG. 4B: BCL-xL:PUMA complex; and FIG. 4C: BAX:BAK protein complexes).

The test system of a further test is BAX:BAK complex. Kind of test: BCL-2 family member complex intensity: BAX:BAK. Conditions: BON-1 and QGP-1 treated with BCL-2/xL inhibitors; FIG. 4C.
From the text: as §3

These results are taken from patent US20220296557A1, “COMBINATIONS OF BCL-2/BCL-XL INHIBITORS AND RELATED USES” (Ascentage Pharma (Suzhou) Co., Ltd., priority 2020, published 2022).

Where only a bound is given, the exact number is not on record here.

On to `CC1(C)CCC(c2ccc(Cl)cc2)=C(CN2CCN(c3ccc(C(=O)NS(=O)(=O)c4ccc(N[C@H](CCN5CCOCC5)CSc5ccccc5)c(S(=O)(=O)C(F)(F)F)c4)cc3)CC2)C1` [ABT-263, 4-(4-{[2-(4-Chlorophenyl)-5,5-dimethyl-1-cyclohexen-1-yl]methyl}-1-piperazinyl)-N-[(4-{[(R)-4-(4-morpholinyl)-1-(phenylsulfanyl)-2-butanyl]amino}-3-[(trifluoromethyl)sulfonyl]phenyl)-sulfonyl]benzamide, reference compound], for which the IC50 in the test with BON-1 was 0.91 µM; in the test on QGP-1, at least 10 µM; with NCI-H727, 3.74 µM; in the test with NCI-H460 it was 71 µM; with β-TC3, 1.12 µM; in the test with MIN-6, 5.56 µM.

As to `Cc1c(S(C)(=O)=O)c(-c2cc(F)cc(N3CCN(c4ccc(NS(=O)(=O)c5ccc(N[C@H](CCN6CCC(C(=O)O)CC6)CSc6ccccc6)c(S(=O)(=O)C(F)(F)F)c5)cc4)CC3)c2)c(-c2ccc(Cl)cc2)n1C(C)C` [Compound No. 2], the IC50 in the test on BON-1 was 0.43 µM; in the test on QGP-1, 3.78 µM; with NCI-H727, 3.79 µM; with NCI-H460, at least 10 µM; in the test with β-TC3 it was 0.55 µM; with MIN-6, 2.07 µM. In the test on NEN cell lines, the NEN cell viability entry is “inhibits the NEN cell viability”. On BCL-xL:BIM complex, the “BCL-xL:BIM complex” value is on record as “decreases BCL-xL:BIM complex”. For the same compound, the “BAX:BAK complex” value in the test on BAX:BAK complex is given as “increases BAX:BAK complex”.
